Measured values published in ChEMBL document CHEMBL5247620, “Lupane derivatives containing various aryl substituents in the position 3 have selective cytostatic effect in leukemic cancer cells including resistant phenotypes” (Eur J Med Chem, 2022).
Each block holds one compound with its values, some of them ahead of it. The source made the active and inactive calls. The calls are words filed in the database; no cut-off is given here.

How the values were obtained:
[1] = tested on: CCRF-CEM; experiment: Cytotoxicity against human CCRF-CEM cells assessed as inhibition of cell growth incubated for 72 hrs by MTS assay; assay type: functional, cell-based
[2] = tested on: CEM-DNR; experiment: Cytotoxicity against human CEM-DNR cells assessed as inhibition of cell growth incubated for 72 hrs by MTS assay; assay type: functional, cell-based
[3] = tested on: K562; experiment: Cytotoxicity against human K562 cells assessed as inhibition of cell growth incubated for 72 hrs by MTS assay; assay type: functional, cell-based; details: K562, 72 h
[4] = Cytotoxicity against human K562-Tax cells assessed as inhibition of cell growth incubated for 72 hrs by MTS assay; assay type: functional, cell-based
[5] = tested on: A549; experiment: Cytotoxicity against human A549 cells assessed as inhibition of cell growth incubated for 72 hrs by MTS assay; assay type: functional, cell-based; details: A549, 72 h
[6] = tested on: HCT-116; experiment: Cytotoxicity against human HCT-116 cells assessed as inhibition of cell growth incubated for 72 hrs by MTS assay; assay type: functional, cell-based; details: HCT-116, 72 h
[7] = Cytotoxicity against human p53HCT116 cells assessed as inhibition of cell growth incubated for 72 hrs by MTS assay; assay type: functional, cell-based; details: p53HCT116, 72 h
[8] = tested on: U2OS; experiment: Cytotoxicity against human U2OS cells assessed as inhibition of cell growth incubated for 72 hrs by MTS assay; assay type: functional, cell-based
[9] = Cytotoxicity against human BJ cells assessed as inhibition of cell growth incubated for 72 hrs by MTS assay; assay type: toxicity, cell-based
[10] = Cytotoxicity against human MRC5 cells assessed as inhibition of cell growth incubated for 72 hrs by MTS assay; assay type: toxicity, cell-based
[11] = tested on: CCRF-CEM; experiment: Induction of apoptosis in human CCRF-CEM cells assessed as viable cells at 1 times IC50 concentration incubated for 24 hrs by annexin V FITC/propidium iodide staining based flow cytometry (reference value: 96 %); assay type: functional
[12] = tested on: CCRF-CEM; experiment: Induction of apoptosis in human CCRF-CEM cells assessed as early apoptotic cells at 1 times IC50 concentration incubated for 24 hrs by annexin V FITC/propidium iodide staining based flow cytometry (reference value: 2.6 %); assay type: functional
[13] = tested on: CCRF-CEM; experiment: Induction of apoptosis in human CCRF-CEM cells assessed as late apoptotic cells at 1 times IC50 concentration incubated for 24 hrs by annexin V FITC/propidium iodide staining based flow cytometry (reference value: 1.4 %); assay type: functional
[14] = tested on: CCRF-CEM; experiment: Induction of apoptosis in human CCRF-CEM cells assessed as viable cells at 5 times IC50 concentration incubated for 24 hrs by annexin V FITC/propidium iodide staining based flow cytometry (reference value: 96 %); assay type: functional
[15] = tested on: CCRF-CEM; experiment: Induction of apoptosis in human CCRF-CEM cells assessed as early apoptotic cells at 5 times IC50 concentration incubated for 24 hrs by annexin V FITC/propidium iodide staining based flow cytometry (reference value: 2.6 %); assay type: functional
[16] = tested on: CCRF-CEM; experiment: Induction of apoptosis in human CCRF-CEM cells assessed as late apoptotic cells at 5 times IC50 concentration incubated for 24 hrs by annexin V FITC/propidium iodide staining based flow cytometry (reference value: 1.4 %); assay type: functional
[17] = tested on: CCRF-CEM; experiment: Induction of apoptosis in human CCRF-CEM cells assessed as decrease in cell number at 1 times IC50 concentration incubated for 24 to 74 hrs by annexin V FITC/propidium iodide staining based flow cytometry; assay type: functional; details: time 24-74 hrs
[18] = tested on: CCRF-CEM; experiment: Induction of apoptosis in human CCRF-CEM cells assessed as decrease in cell number at 5 times IC50 concentration incubated for 24 to 74 hrs by annexin V FITC/propidium iodide staining based flow cytometry; assay type: functional; details: time 24-74 hrs
[19] = Chemical stability of the compound in PBS buffer assessed as compound remaining at pH 7.4 at 2 uM measured after 15 mins by RF-MS analysis; assay type: physicochemical; details: read-out: Stability
[20] = Chemical stability of the compound in PBS buffer assessed as compound remaining at pH 7.4 at 2 uM measured after 30 mins by RF-MS analysis; assay type: physicochemical; details: read-out: Stability
[21] = Chemical stability of the compound in PBS buffer assessed as compound remaining at pH 7.4 at 2 uM measured after 60 mins by RF-MS analysis; assay type: physicochemical; details: read-out: Stability
[22] = Chemical stability of the compound in PBS buffer assessed as compound remaining at pH 7.4 at 2 uM measured after 120 mins by RF-MS analysis; assay type: physicochemical; details: read-out: Stability
[23] = Plasma protein binding in human assessed as fraction bound at 10 uM incubated for 4 hrs by rapid equilibrium dialysis based RF-MS analysis; assay type: ADME, cell-free; details: read-out: PPB (converted)
[24] = Plasma stability in human assessed as compound remaining at 2 uM measured after 15 mins by RF-MS analysis; assay type: ADME, cell-free; details: read-out: Stability
[25] = Plasma stability in human assessed as compound remaining at 2 uM measured after 30 mins by RF-MS analysis; assay type: ADME, cell-free; details: read-out: Stability
[26] = Plasma stability in human assessed as compound remaining at 2 uM measured after 60 mins by RF-MS analysis; assay type: ADME, cell-free; details: read-out: Stability
[27] = Plasma stability in human assessed as compound remaining at 2 uM measured after 120 mins by RF-MS analysis; assay type: ADME, cell-free; details: read-out: Stability
[28] = Microsomal stability in human liver microsome as compound remaining at 2 uM measured after 15 mins in presence of NADPH by RF-MS analysis; assay type: ADME; details: liver microsomes, read-out: Stability
[29] = Microsomal stability in human liver microsome as compound remaining at 2 uM measured after 30 mins in presence of NADPH by RF-MS analysis; assay type: ADME; details: liver microsomes, read-out: Stability
[30] = Microsomal stability in human liver microsome as compound remaining at 2 uM measured after 60 mins in presence of NADPH by RF-MS analysis; assay type: ADME; details: liver microsomes, read-out: Stability
[31] = Apparent permeability across apical to basolateral side in dog MDCK-MDR1 cells incubated for 1 hr by high-throughput spectrometric analysis; assay type: ADME, cell-based, Canis lupus familiaris
[32] = Apparent permeability across apical to basolateral side in human Caco-2 cells incubated for 2 hr by high-throughput spectrometric analysis; assay type: ADME, cell-based
[33] = Efflux ratio of apparent permeability from basolateral to apical side over apical to basolateral side in dog MDCK-MDR1 cells incubated for 1 hr by high-throughput spectrometric analysis; assay type: ADME, cell-based, Canis lupus familiaris
[34] = Efflux ratio of apparent permeability from basolateral to apical side over apical to basolateral side in human Caco-2 cells incubated for 2 hr by high-throughput spectrometric analysis; assay type: ADME, cell-based
[35] = Apparent permeability across apical to basolateral side in dog MDCK-MDR1 cells assessed as drug recovery incubated for 1 hr by high-throughput spectrometric analysis; assay type: ADME, cell-based, Canis lupus familiaris; details: read-out: Drug recovery
[36] = Apparent permeability across apical to basolateral side in human Caco-2 cells assessed as drug recovery incubated for 2 hr by high-throughput spectrometric analysis; assay type: ADME, cell-based; details: read-out: Drug recovery
[37] = tested on: CCRF-CEM; experiment: Induction of cell cycle arrest in human CCRF-CEM cells assessed as accumulation of cells at G1 phase at 1 times IC50 concentration incubated for 24 to 72 hrs by propidium iodide staining based flow cytometry; assay type: functional; details: time 24-72 hrs
[38] = tested on: CCRF-CEM; experiment: Induction of cell cycle arrest in human CCRF-CEM cells assessed as accumulation of cells at G1 phase at 5 times IC50 concentration incubated for 24 to 72 hrs by propidium iodide staining based flow cytometry; assay type: functional; details: time 24-72 hrs
[39] = tested on: CCRF-CEM; experiment: Induction of cell cycle arrest in human CCRF-CEM cells assessed as decrease of cell population at S phase at 1 times IC50 concentration incubated for 24 to 72 hrs by propidium iodide staining based flow cytometry; assay type: functional; details: time 24-72 hrs
[40] = tested on: CCRF-CEM; experiment: Induction of cell cycle arrest in human CCRF-CEM cells assessed as decrease of cell population at S phase at 5 times IC50 concentration incubated for 24 to 72 hrs by propidium iodide staining based flow cytometry; assay type: functional; details: time 24-72 hrs
[41] = tested on: CCRF-CEM; experiment: Induction of apoptosis in human CCRF-CEM cells assessed as decrease in Rb phosphorylation level at Ser780 at 5 times IC50 concentration incubated for 24 hrs by western blot assay; assay type: functional, cell-based
[42] = tested on: CCRF-CEM; experiment: Induction of apoptosis in human CCRF-CEM cells assessed as decrease in Rb phosphorylation level at Ser807/811 at 5 times IC50 concentration incubated for 24 hrs by western blot assay; assay type: functional, cell-based
[43] = tested on: CCRF-CEM; experiment: Induction of apoptosis in human CCRF-CEM cells assessed as decrease in cyclin A protein expression level at 5 times IC50 concentration incubated for 24 hrs by western blot assay; assay type: functional, cell-based
[44] = tested on: CCRF-CEM; experiment: Induction of apoptosis in human CCRF-CEM cells assessed as decrease in Bcl-2 protein expression level at 5 times IC50 concentration incubated for 24 hrs by western blot assay; assay type: functional, cell-based
[45] = tested on: CCRF-CEM; experiment: Induction of apoptosis in human CCRF-CEM cells assessed as effect on total Rb protein level at 5 times IC50 concentration incubated for 24 hrs by western blot assay; assay type: functional, cell-based
[46] = tested on: CCRF-CEM; experiment: Induction of apoptosis in human CCRF-CEM cells assessed as effect on total Rb protein level at 1 times IC50 concentration incubated for 24 hrs by western blot assay; assay type: functional, cell-based

remaining at 0.25 h, 2 µM [19]: 99.6% | remaining at 0.5 h, 2 µM [20]: 93.5% | remaining at 1 h, 2 µM [21]: 102% | remaining at 2 h, 2 µM [22]: 105% | fraction unbound at 4 h, 10 µM [23]: 0.334 | remaining at 0.25 h, 2 µM [24]: 90.3% | remaining at 0.5 h, 2 µM [25]: 87.4% | remaining at 1 h, 2 µM [26]: 85.6% | remaining at 2 h, 2 µM [27]: 86.7% | remaining at 0.25 h, 2 µM [28]: 99.3% | remaining at 0.5 h, 2 µM [29]: 97.8% | remaining at 1 h, 2 µM [30]: 95.8% | Papp A→B at 1 h [31]: 8.84 ×10⁻⁶ cm/s | Papp A→B at 2 h [32]: 2.32 ×10⁻⁶ cm/s | efflux ratio at 1 h [33]: 1.29 | efflux ratio at 2 h [34]: 1.72 | recovery at 1 h [35]: 67.6% | recovery at 2 h [36]: 97.5%
Structure (SMILES): C=C(C)[C@@H]1CC[C@]2(C(=O)O)CC[C@]3(C)[C@H](CC[C@@H]4[C@@]5(C)CC=C(c6cccc(O)c6)C(C)(C)[C@@H]5CC[C@]43C)[C@@H]12
IC50 [1]: 3.9 µM | IC50 [2]: 4 µM | IC50 [3]: 19 µM | IC50 [4]: 3.8 µM | IC50 [5]: 14 µM | IC50 [6]: 4 µM | IC50 [7]: 12 µM | IC50 [8]: 17 µM | IC50 at 72 h [9]: 31 µM | IC50 at 72 h [10]: 19 µM | Activity [11]: 94.5% | Activity [12]: 3.4% | Activity [13]: 2.1% | Activity [14]: 89% | Activity [15]: 6% | Activity [16]: 5% | Activity [17]: Active | Activity [18]: Active | Activity [37]: Active | Activity [38]: 20% | Activity [39]: Active | Activity [40]: Active | Activity [41]: Active | Activity [42]: Active | Activity [43]: Active | Activity [44]: Active | Activity [45]: inactive | Activity [46]: inactive

Structure (SMILES): C=C(C)[C@@H]1CC[C@]2(C(=O)O)CC[C@]3(C)[C@H](CC[C@@H]4[C@@]5(C)CC=C(c6ccc(O)cc6)C(C)(C)[C@@H]5CC[C@]43C)[C@@H]12
IC50 [1]: 0.69 µM | IC50 [2]: 3.3 µM | IC50 [3]: 6.2 µM | IC50 [4]: 3.3 µM | IC50 [5]: 6.2 µM | IC50 [6]: 7.4 µM | IC50 [7]: 6.4 µM | IC50 [8]: 11 µM | IC50 at 72 h [9]: 31 µM | IC50 at 72 h [10]: 27 µM | Activity [11]: 95% | Activity [12]: 3.4% | Activity [13]: 1.6% | Activity [14]: 94.2% | Activity [15]: 3.9% | Activity [16]: 1.9% | Activity [17]: Active | Activity [18]: Active | remaining at 0.25 h, 2 µM [19]: 98.9% | remaining at 0.5 h, 2 µM [20]: 98.7% | remaining at 1 h, 2 µM [21]: 94% | remaining at 2 h, 2 µM [22]: 89.6% | fraction unbound at 4 h, 10 µM [23]: 0.242 | remaining at 0.25 h, 2 µM [24]: 93.9% | remaining at 0.5 h, 2 µM [25]: 88.1% | remaining at 1 h, 2 µM [26]: 86.8% | remaining at 2 h, 2 µM [27]: 74.4% | remaining at 0.25 h, 2 µM [28]: 96.7% | remaining at 0.5 h, 2 µM [29]: 93.2% | remaining at 1 h, 2 µM [30]: 92.9% | Papp A→B at 1 h [31]: 4.27 ×10⁻⁶ cm/s | Papp A→B at 2 h [32]: 1.69 ×10⁻⁶ cm/s | efflux ratio at 1 h [33]: 2.05 | efflux ratio at 2 h [34]: 1.47 | recovery at 1 h [35]: 55.9% | recovery at 2 h [36]: 65.2% | Activity [37]: Active | Activity [38]: Active | Activity [39]: Active | Activity [40]: Active | Activity [45]: inactive | Activity [46]: inactive
